# Assay results as given in patent US9265253B2, “Use of macrocyclic picolinamides as fungicides” (DOW AGROSCIENCES LLC, priority 2013, dated 2016).
# Tests used:
# Type in all cases: in vivo
# Cercospora beticola = assay: Leaf Spot of Sugar Beets (CERCBE) disease control; conditions: Cercospora beticola, topical, 24 h, 1 Day Protectant, sugar beet, read-out: Disease Control CERCBE 1 DP
# Method: Technical grades of materials were dissolved in acetone, which were then mixed with nine volumes of water containing 110 ppm Triton X-100. The fungicide solutions were applied onto wheat seedlings using an automated booth sprayer to run-off. All sprayed plants were allowed to air dry prior to further handling. All fungicides were evaluated using the aforementioned method for their activity vs. all target diseases. Wheat leaf blotch and brown rust activity were also evaluated using track spray applications, in which case the fungicides were formulated as EC formulations, containing 0.1% Trycol 5941 in the spray solutions. Wheat plants (variety Yuma) were grown from seed in a greenhouse in 50% mineral soil/50% soil-less Metro mix until the first leaf was fully emerged, with 7-10 seedlings per pot. These plants were inoculated with an aqueous spore suspension of Septoria tritici either prior to or after fungicide treatments. After inoculation the plants were kept in 100% relative humidity (one day in a dark dew chamber followed by two to three days in a lighted dew chamber at 20° C.) to permit spores to germinate and infect the leaf. The plants were then transferred to a greenhouse set at 20° C. for disease to develop. When disease symptoms were fully expressed on the 1st leaves of untreated plants, infection levels were assessed on a scale of 0 to 100 percent disease severity. Percent disease control was calculated using the ratio of disease severity on treated plants relative to untreated plants. Sugar beet plants (variety HH88) were grown in soil-less Metro mix and trimmed regularly to maintain a uniform plant size prior to test. Plants were inoculated with a spore suspension 24 hr after fungicide treatments. Inoculated plants were kept in a dew chamber at 22° C. for 48 hr then incubated in a greenhouse set at 24° C. under a clear plastic hood with bottom ventilation until disease symptoms were fully expressed. Fungicide formulation, application and disease assessment on the sprayed leaves followed the procedures as described in the Example A.
# [1] = system: Blumeria graminis f. sp. hordei; Synonym: Erysiphe graminis f. sp. hordei; assay: Barley Powdery Mildew (ERYSGH) disease control; conditions: Blumeria graminis, 24 h, 1 Day Protectant, read-out: Disease Control ERYSGH 1 DP
# Method: Technical grades of materials were dissolved in acetone, which were then mixed with nine volumes of water containing 110 ppm Triton X-100. The fungicide solutions were applied onto wheat seedlings using an automated booth sprayer to run-off. All sprayed plants were allowed to air dry prior to further handling. All fungicides were evaluated using the aforementioned method for their activity vs. all target diseases. Wheat leaf blotch and brown rust activity were also evaluated using track spray applications, in which case the fungicides were formulated as EC formulations, containing 0.1% Trycol 5941 in the spray solutions. Wheat plants (variety Yuma) were grown from seed in a greenhouse in 50% mineral soil/50% soil-less Metro mix until the first leaf was fully emerged, with 7-10 seedlings per pot. These plants were inoculated with an aqueous spore suspension of Septoria tritici either prior to or after fungicide treatments. After inoculation the plants were kept in 100% relative humidity (one day in a dark dew chamber followed by two to three days in a lighted dew chamber at 20° C.) to permit spores to germinate and infect the leaf. The plants were then transferred to a greenhouse set at 20° C. for disease to develop. When disease symptoms were fully expressed on the 1st leaves of untreated plants, infection levels were assessed on a scale of 0 to 100 percent disease severity. Percent disease control was calculated using the ratio of disease severity on treated plants relative to untreated plants. Barley seedlings (variety Harrington) were propagated in soil-less Metro mix, with each pot having 8 to 12 plants, and used in the test when first leaf was fully emerged. Test plants were inoculated by dusting with infected stock plants 24 hr after fungicide treatments. After inoculation the plants were kept in a greenhouse set at 20° C. for disease to develop. Fungicide formulation, application and disease assessment on the sprayed leaves followed the procedures as described in the Example A.
# [2] = system: Glomerella lagenarium; Anamorph: Colletotrichum lagenarium; assay: Cucumber Anthracnose (COLLLA) disease control; conditions: Colletotrichum orbiculare, topical, 24 h, 1 Day Protectant, read-out: Disease Control COLLLA 1 DP
# Method: Technical grades of materials were dissolved in acetone, which were then mixed with nine volumes of water containing 110 ppm Triton X-100. The fungicide solutions were applied onto wheat seedlings using an automated booth sprayer to run-off. All sprayed plants were allowed to air dry prior to further handling. All fungicides were evaluated using the aforementioned method for their activity vs. all target diseases. Wheat leaf blotch and brown rust activity were also evaluated using track spray applications, in which case the fungicides were formulated as EC formulations, containing 0.1% Trycol 5941 in the spray solutions. Wheat plants (variety Yuma) were grown from seed in a greenhouse in 50% mineral soil/50% soil-less Metro mix until the first leaf was fully emerged, with 7-10 seedlings per pot. These plants were inoculated with an aqueous spore suspension of Septoria tritici either prior to or after fungicide treatments. After inoculation the plants were kept in 100% relative humidity (one day in a dark dew chamber followed by two to three days in a lighted dew chamber at 20° C.) to permit spores to germinate and infect the leaf. The plants were then transferred to a greenhouse set at 20° C. for disease to develop. When disease symptoms were fully expressed on the 1st leaves of untreated plants, infection levels were assessed on a scale of 0 to 100 percent disease severity. Percent disease control was calculated using the ratio of disease severity on treated plants relative to untreated plants. Cucumber seedlings (variety Bush Pickle) were propagated in soil-less Metro mix, with each pot having one plant, and used in the test when 12 to 14 days old. Test plants were inoculated with an aqueous spore suspension of Colletotrichum lagenarium 24 hr after fungicide treatments. After inoculation the plants were kept in a dew room at 22° C. with 100% relative humidity for 48 hr to permit spores to germinate and infect the leaf. The plants were then transferred to a growth room set at 22° C. for disease to develop. Fungicide formulation, application and disease assessment on the sprayed leaves followed the procedures as described in the Example A.
SMILES,pest or weed control at 100 ppm (Cercospora beticola) [%],pest or weed control at 100 ppm [1] [%],pest or weed control at 100 ppm [2] [%]
COc1ccnc(C(=O)N[C@H]2CCC[C@H](Cc3ccccc3)[C@@H](Oc3ccccc3)[C@H](C)OC2=O)c1OCOC(C)=O [Compound F108],80 to 100,0 to 80,80 to 100
CCCO[C@@H]1[C@@H](Cc2ccccc2)CCC[C@H](NC(=O)c2nccc(OC)c2OCOC(C)=O)C(=O)O[C@H]1C [Compound F109],80 to 100,80 to 100,80 to 100
COc1ccnc(C(=O)N[C@H]2CCC[C@H](CC3CCCC3)[C@@H](OCC3CC3)[C@H](C)OC2=O)c1OCOC(C)=O [Compound F117],80 to 100,80 to 100,80 to 100
"COc1ccnc(C(=O)N[C@H]2CCC[C@H](CCF)[C@@H](OCC(C)C)[C@H](C)OC2=O)c1OCOC(C)=O [Compound F128, ((2-(((3S,7R,8R,9S)-7-(2-fluoroethyl)-8-isobutoxy-9-methyl-2-oxooxonan-3-yl)carbamoyl)-4-methoxypyridin-3-yl)oxy)methyl acetate]",80 to 100,0 to 80,80 to 100
COCC[C@H]1CCC[C@H](NC(=O)c2nccc(OC)c2OCOC(C)=O)C(=O)O[C@@H](C)[C@@H]1Oc1ccccc1 [Compound F130],0 to 80,0 to 80,80 to 100
COc1ccnc(C(=O)N[C@H]2CCC[C@H](CC(F)F)[C@@H](Oc3ccccc3)[C@H](C)OC2=O)c1OCOC(C)=O [Compound F138],80 to 100,0 to 80,80 to 100
COc1ccnc(C(=O)N[C@H]2CCC[C@H](Cc3ccc(F)cc3F)[C@@H](OCC(C)C)[C@H](C)OC2=O)c1OCOC(C)=O [Compound F145],80 to 100,80 to 100,80 to 100
C=C[C@H]1CCC[C@H](NC(=O)c2nccc(OC)c2OCOC(C)=O)C(=O)O[C@@H](C)[C@@H]1Oc1ccccc1 [Compound F146],80 to 100,0 to 80,80 to 100
COc1ccnc(C(=O)N[C@H]2CCC[C@H](Cc3ccccc3)[C@@H](OCC(C)C)[C@H](C)OC2=O)c1OCOC(=O)C(C)C [Compound F151],80 to 100,80 to 100,80 to 100
COc1ccnc(C(=O)N[C@H]2CCC[C@H](Cc3ccccc3)[C@@H](OCC3CC3)[C@H](C)OC2=O)c1OCOC(=O)C(C)C [Compound F152],80 to 100,80 to 100,80 to 100
CCCO[C@@H]1[C@@H](CCC(C)C)CCC[C@H](NC(=O)c2nccc(OC)c2OCOC(=O)COCC)C(=O)O[C@H]1C [Compound F161],80 to 100,80 to 100,80 to 100
CCOCC(=O)OCOc1c(OC)ccnc1C(=O)N[C@H]1CCC[C@H](Cc2ccc(F)cc2)[C@@H](OCC2CC2)[C@H](C)OC1=O [Compound F164],80 to 100,80 to 100,80 to 100
CCCO[C@@H]1[C@@H](Cc2ccc(F)cc2)CCC[C@H](NC(=O)c2nccc(OC)c2OCOC(=O)COCC)C(=O)O[C@H]1C [Compound F167],80 to 100,80 to 100,80 to 100
CCOCC(=O)OCOc1c(OC)ccnc1C(=O)N[C@H]1CCC[C@H](Cc2ccccc2)[C@@H](OCC(C)C)[C@H](C)OC1=O [Compound F172],80 to 100,80 to 100,80 to 100
CCOCC(=O)OCOc1c(OC)ccnc1C(=O)N[C@H]1CCC[C@H](Cc2ccccc2)[C@@H](OCC2CC2)[C@H](C)OC1=O [Compound F173],80 to 100,80 to 100,80 to 100
CCCO[C@@H]1[C@@H](Cc2ccccc2)CCC[C@H](NC(=O)c2nccc(OC)c2OCOC(=O)COCC)C(=O)O[C@H]1C [Compound F174],80 to 100,80 to 100,80 to 100
CCOCC(=O)OCOc1c(OC)ccnc1C(=O)N[C@H]1CCC[C@H](CCF)[C@@H](OCC(C)C)[C@H](C)OC1=O [Compound F181],0 to 80,0 to 80,80 to 100
CCOCC(=O)OCOc1c(OC)ccnc1C(=O)N[C@H]1CCC[C@H](CCOC)[C@@H](Oc2ccccc2)[C@H](C)OC1=O [Compound F183],0 to 80,0 to 80,80 to 100
CCOCC(=O)OCOc1c(OC)ccnc1C(=O)N[C@H]1CCC[C@H](Cc2ccc(F)cc2F)[C@@H](OC(=O)c2ccco2)[C@H](C)OC1=O [Compound F193],80 to 100,0 to 80,80 to 100
CCCO[C@@H]1[C@@H](Cc2ccccc2)CCC[C@H](NC(=O)c2nccc(OC)c2OC(=O)CCOC)C(=O)O[C@H]1C [Compound F198],80 to 100,80 to 100,80 to 100
